Among the test systems are SW-620 colon; NCI-H23 lung; SR leukemia; SNB-75 CNS; HS 578T breast; SF-268 CNS; PC-3 prostate; HCC-2998 colon; KM12 colon; OVCAR-3 ovarian; MCF7 breast; RXF 393 renal; DU-145 prostate; NCI-H460 lung; UO-31 renal; SF-539 CNS; EKVX NSCLC; HT29 colon; MALME-3M melanoma; HCT-15 colon.
Common to all, as to test: NCI tumour cell line growth inhibition, 48 h

Among the data in PubChem BioAssay (NCI) are TGI values, retold here.

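Compound exposure: 48 hours, 5 concentrations, 96-well plates. The concentration for full growth arrest is given as TGI.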

Take `CC1C2CC(CC2(C)O)C1(C)C` (stereo not drawn): the TGI in the experiment on SW-620 colon, in the experiment with NCI-H23 lung, in the experiment with SR leukemia, in the experiment with SNB-75 CNS, with HS 578T breast and in the experiment on SF-268 CNS was over 100 µM in each case. The TGI in the experiment with PC-3 prostate, with HCC-2998 colon, in the experiment with KM12 colon, in the experiment on OVCAR-3 ovarian, in the experiment with MCF7 breast and in the experiment on RXF 393 renal was over 100 µM throughout. The TGI with DU-145 prostate, in the experiment with NCI-H460 lung, in the experiment with UO-31 renal, in the experiment with SF-539 CNS, in the experiment with EKVX NSCLC and in the experiment on HT29 colon was over 100 µM each time. Further, the TGI in the experiment with MALME-3M melanoma is over 100 µM.

In the case of `COc1cc2c(c(O)c1OC)C(=O)[C@@H]1CCC(=O)N1C2c1ccccc1` (stereo partly drawn), the TGI with SW-620 colon, with NCI-H23 lung, with HCT-15 colon, in the experiment with SR leukemia, in the experiment with SNB-75 CNS and with HS 578T breast was over 100 µM each time. Besides, the TGI in the experiment on SF-268 CNS, with PC-3 prostate, with HCC-2998 colon, in the experiment with KM12 colon, with OVCAR-3 ovarian and with MCF7 breast was over 100 µM each time. For the same compound, the TGI with DU-145 prostate, in the experiment with NCI-H460 lung, in the experiment on UO-31 renal, in the experiment on SF-539 CNS, with EKVX NSCLC and in the experiment with HT29 colon was over 100 µM throughout. This compound registered a TGI in the experiment with MALME-3M melanoma of over 100 µM.

`CCOC(=O)c1ccc(C(=O)n2ccnc2)[nH]1`: the TGI with SW-620 colon, with NCI-H23 lung, with HCT-15 colon, in the experiment on SR leukemia, in the experiment on SNB-75 CNS and in the experiment with HS 578T breast was over 100 µM throughout. Also, the TGI with SF-268 CNS, in the experiment with PC-3 prostate, in the experiment with HCC-2998 colon, with KM12 colon, with OVCAR-3 ovarian and in the experiment on MCF7 breast was over 100 µM throughout. Also, the TGI with RXF 393 renal, in the experiment with DU-145 prostate, in the experiment with NCI-H460 lung, with UO-31 renal, in the experiment on EKVX NSCLC and in the experiment with MALME-3M melanoma was over 100 µM in each case.

As for `O=S1(=O)c2ccccc2C(Nc2ccccc2)N1c1ccccc1` (stereo not drawn), the TGI with SW-620 colon, in the experiment on NCI-H23 lung, in the experiment with HCT-15 colon, in the experiment with SR leukemia, in the experiment on SNB-75 CNS and with HS 578T breast was over 100 µM throughout. In addition, the TGI with SF-268 CNS, with PC-3 prostate, with HCC-2998 colon, in the experiment on KM12 colon, with OVCAR-3 ovarian and with MCF7 breast was over 100 µM throughout. Also, the TGI in the experiment on RXF 393 renal, with DU-145 prostate, in the experiment on NCI-H460 lung, in the experiment on UO-31 renal, with SF-539 CNS and in the experiment on EKVX NSCLC was over 100 µM each time. Further, the TGI in the experiment on HT29 colon and in the experiment with MALME-3M melanoma was over 100 µM throughout.

For the compound `CCC1(CC)C(=O)N(C(=O)c2ccccc2)N(C(=O)c2ccc(Cl)cc2)C1=O`, the TGI in the experiment with SW-620 colon is over 75 µM; in the experiment on NCI-H23 lung it was over 75 µM; with HCT-15 colon, over 75 µM; in the experiment on SR leukemia, 53.6 µM; in the experiment on SNB-75 CNS, over 75 µM; with HS 578T breast, over 75 µM. The TGI in the experiment on SF-268 CNS, with PC-3 prostate, with HCC-2998 colon, in the experiment on KM12 colon, in the experiment on OVCAR-3 ovarian and in the experiment with MCF7 breast was over 75 µM in each case. In addition, the TGI with RXF 393 renal, in the experiment with DU-145 prostate, with NCI-H460 lung, with UO-31 renal, in the experiment with EKVX NSCLC and in the experiment with HT29 colon was over 75 µM in each case. Moreover, the TGI with MALME-3M melanoma is over 75 µM.

With `O=c1cc(NNCc2ccccc2)[nH]c(=O)[nH]1`, the TGI with SW-620 colon, with NCI-H23 lung, in the experiment on HCT-15 colon, with SR leukemia, with HS 578T breast and with SF-268 CNS was over 100 µM in each case. Also, the TGI with PC-3 prostate, with HCC-2998 colon, in the experiment on KM12 colon, with OVCAR-3 ovarian, in the experiment on MCF7 breast and in the experiment on RXF 393 renal was over 100 µM each time. Further, the TGI in the experiment with DU-145 prostate, in the experiment on NCI-H460 lung, in the experiment on UO-31 renal, with SF-539 CNS, in the experiment on EKVX NSCLC and in the experiment with HT29 colon was over 100 µM each time. The TGI with MALME-3M melanoma is over 100 µM.

Take `C=C1C(=O)O[C@@H]2/C=C(\C)CC/C=C(\C)CC[C@@]12O`: the TGI with SW-620 colon worked out at 3.46 µM; in the experiment on NCI-H23 lung, 4.32 µM; in the experiment on HCT-15 colon, 9.27 µM; in the experiment with SR leukemia, 10.8 µM; in the experiment with HS 578T breast it was 22.7 µM; in the experiment with SF-268 CNS it was 13.8 µM. The TGI in the experiment on PC-3 prostate is 15.6 µM; in the experiment on HCC-2998 colon, 12.7 µM; with KM12 colon it was 25 µM; in the experiment with OVCAR-3 ovarian it was 6.43 µM; with MCF7 breast, 14.5 µM; with RXF 393 renal, 0.897 µM. In addition, the TGI is 4.93 µM with DU-145 prostate; 31.5 µM in the experiment with NCI-H460 lung; 2.86 µM in the experiment with UO-31 renal; 3.39 µM in the experiment with SF-539 CNS; 12.1 µM in the experiment on EKVX NSCLC; 10.9 µM in the experiment with HT29 colon. Besides, the TGI with MALME-3M melanoma came to 3.05 µM.
